Test results published in US5679695A, “Aryl and heteroaryl compounds having anti-retrovirus activity” (The University of Connecticut, priority 1995, dated 1997).
“And” between values parts separate entries of the source, which are not always exact repeats. Identical values can stand only once.

How the values were obtained:
[1] = tested on: LP-BM5 MuLV; test: LP-BM5 MuLV UV-XC plaque assay; format: cell-based, Murine Leukemia Virus; details: for inhibition at 100 µM / inhibition at 10 µM / inhibition at 1 µM / inhibition at 0.1 µM / inhibition at 0.01 µM: Murine leukemia virus, SC-1, read-out: % Plaque Reduction
Description: One such method is used to determine the effectiveness of representative compounds and compositions of the present invention in the Rauscher and LP-BMS Murine Leukemia Virus (MLV) In Vitro Assays.
SC-1 cells were grown as monolayers in 6-well tissue culture plates (Falcon). The a test compound was added to the cultures at the time of virus inoculation (approximately 24 hours after the cells were seeded) and was present for 3 days, at which time the cultures were irradiated with UV light. All compounds were solubilized in DMSO prior to dilution in grown medium. The highest concentration of DMSO present in the cultures was 0.05%. The test cultures (triplicate cultures per drug concentrate) each contained 2 ml of test compound diluted in growth medium (Eagle's minimum) essential medium (EMEM) supplemented with 5% heat-inactivated fetal bovine serum (FBS) and 0.5 ml of the virus suspension diluted to produce a countable number of plaques per well. The six virus control cultures contained 2 ml of medium and 0.5 ml of the virus suspension. NSC606170(ddC) was included as a positive control. drug. Drug cytotoxicity control cultures (containing test compound) but no virus and cell control culture (containing no test compound) or virus were included in the assay. On day 3 post-virus inoculation, the cultures were irradiated and XC cells were added. Three days after V-irradiation, the cultures were fixed with formalin and stained with 0.1% crystal violet. The plaques were counted with the aid of a dissection microscope.
Using the procedure, the following data is generated from representative compounds of the presnet invention.

[2] = XTT toxicity control, uninfected culture, CEM-V; format: cell-based; details: human, cem-v cells, read-out: Uninfected culture response
Description: (§1) Another assay for testing the efficacy of the compounds is the procedure* used in the National Cancer Institute's test for agents active against Human Immunodeficiency Virus (HIV). It is designed to detect agents acting at any stage of the virus reproductive cycle. The assay basically involves the killing of T4 lymphocytes by HIV. Small amounts of HIV are added to cells, and a complete cycle of virus reproduction is necessary to obtain the required cell killing. Agents that interact with virions, cells, or virus gene-products to interfere with viral activities will protect cells from cytolysis. The system is automated in several features to accommodate large numbers of candidate agents and is generally designed to detect anti-HIV activity. However, compounds that degenerate, or are rapidly metabolized in the culture conditions may not show activity in this screen. All tests are compared with at least one positive (e.g., AZT-treated) control done at the same time under identical conditions.
(§2) * Weislow. O. W., Kiser, R., Fine, D., Bader, J., Shoemaker, R. H., Boyd, M. R.: New soluble-formazan assay for HIV-1 cytopathic effects: application to high-flux screening of synthetic and natural products for AIDS-antiviral activity. J. Natl. Cancer Inst. 81:577-586, 1989.
(§3) 1. The Candidate agent is dissolved in dimethyl sulfoxide (unless otherwise instructed) then diluted 1:100 in cell culture medium before preparing serial half-log10 dilutions. T4 lymphocytes (CEM cell line) are added and after a brief interval HIV-1 added, resulting in a 1:200 final dilution of the compound. Uninfected cells with the compound serve as a toxicity control, and infected and uninfected cells without compound serve as basic controls.
(§4) 2. Cultures are incubated at 37° in a 5% carbon dioxide atmosphere for 6 days.
(§5) 3. The tetrazolium salt, XTT, is added to all wells, and cultures are incubated to allow formazan color development by viable cells.
(§6) 4. Individual wells are analyzed spectrophotometrically to quantitate formazan production, and in addition are viewed microscopically for detection of viable cells and confirmation of protective activity.
(§7) 5. Drug-treated virus-infected cells are compared with drug-treated noninfected cells and with other appropriate controls (untreated infected and untreated noninfected: cells, drug-containing wells without cells, etc.) on the same plate.
(§8) 6. Data are reviewed in comparison with other tests done at the same time and a determination about activity is made.

[3] = tested on: CEM-V; test: XTT toxicity control, uninfected culture, CEM-V; format: cell-based
Description: as §1, §2, §3, §4, §5, §6, §7, §8

[4] = XTT toxicity control, uninfected culture, CEM-Z; format: cell-based; details: human, cem-z cells, read-out: Uninfected culture response
Description: as §1, §2, §3, §4, §5, §6, §7, §8

[5] = tested on: HIV; test: Anti-HIV activity in MT-2; format: cell-based; details: Human immunodeficiency virus 1; MT-2, summary table; read-out: MT-2 EC50
Source text: Obviously, there is a structure activity relationship with respect to the efficacy of the compounds of the present invention. Factors that affect the relationship may include steric effects, electronic effects, (electron withdrawing or electron donating ability), resonance effects, hydrophobic,hydrophilic, hydrogen bonding parameters, etc. […] Based on the data, it has been determined that there is a direct correlation between the log (EC50)^-1 and the electronic effect of a substituent (a) or more precisely the sum of the sigma (σ) values. (The greater the electron withdrawing ability of a substituent, the higher the value of σ, while a better electron donating group has a lower value of σ.) There appears to be a direct correlation between log (EC50)^-1 and the Σσ; as the Σσ increases, so does the log (EC50)^-1. The addition of substituents to the diphenyl sulfone will affect the factors discussed hereinabove, thus both the log (EC50)^-1 and the Σσ will be affected. Thus for the diphenyl sulfone derivative [drawing 25] the relation is […]

For `O=[N+]([O-])c1ccccc1S(=O)(=O)c1ccccc1` [Compound 1, 1-Nitro-2-(phenylsulfonyl)benzene], the Mean plaque count ([1]; 1 × 10^-4 M) was 254, the “Plaque count, replicate #1” value ([1]; 1 × 10^-4 M) was 219 and the “Plaque count, replicate #2” value ([1]; 1 × 10^-4 M) was 216. The “Plaque count, replicate #3” value ([1]; 1 × 10^-4 M) was 328, the Mean plaque count ([1]; 1 × 10^-5 M) was 261 and the “Plaque count, replicate #1” value ([1]; 1 × 10^-5 M) was 335. For the same compound, the “Plaque count, replicate #2” value ([1]; 1 × 10^-5 M) was 216, the “Plaque count, replicate #3” value ([1]; 1 × 10^-5 M) was 232 and the Mean plaque count ([1]; 1 × 10^-6 M) was 255. For the same compound, the “Plaque count, replicate #1” value ([1]; 1 × 10^-6 M) was 337, the “Plaque count, replicate #2” value ([1]; 1 × 10^-6 M) was 218 and the “Plaque count, replicate #3” value ([1]; 1 × 10^-6 M) was 210. The Mean plaque count ([1]; 1 × 10^-7 M) was 207, the “Plaque count, replicate #1” value ([1]; 1 × 10^-7 M) was 201 and the “Plaque count, replicate #2” value ([1]; 1 × 10^-7 M) was 192. The “Plaque count, replicate #3” value ([1]; 1 × 10^-7 M) was 228, the Mean plaque count ([1]; 1 × 10^-8 M) was 246 and the “Plaque count, replicate #1” value ([1]; 1 × 10^-8 M) was 222. The “Plaque count, replicate #2” value ([1]; 1 × 10^-8 M) was 204, the “Plaque count, replicate #3” value ([1]; 1 × 10^-8 M) was 311 and the inhibition at 100 µM ([1]; 1 × 10^-4 M) was 11%. It also gave an inhibition at 10 µM ([1]; 1 × 10^-5 M) of 9%, an inhibition at 1 µM ([1]; 1 × 10^-6 M) of 11% and an inhibition at 0.1 µM ([1]; 1 × 10^-7 M) of 27%. For the same compound, the inhibition at 0.01 µM ([1]; 1 × 10^-8 M) was 14%, the viability at 0.179 µM ([2]; 1.79 × 10^-7 Molar) was 123% and the viability at 189 µM ([2]; 1.89 × 10^-4 Molar) was 86.7%. It also gave a viability at 18.9 µM ([2]; 1.89 × 10^-5 Molar) of 99.9%, a viability at 1.89 µM ([2]; 1.89 × 10^-6 Molar) of 97.9% and a viability at 0.19 µM ([2]; 1.90 × 10^-7 Molar) of 96.9%. For the same compound, the viability at 59.8 µM ([2]; 5.98 × 10^-5 Molar) was 105%, the viability at 5.99 µM ([2]; 5.99 × 10^-6 Molar) was 111% and the viability at 0.6 µM ([2]; 6.00 × 10^-7 Molar) was 90.4%. It also gave a viability at 0.0601 µM ([2]; 6.01 × 10^-8 Molar) of 105%, a Uninfected culture response ([3]; 1.79 × 10^-7 Molar, 0.179 µM) of 106.5% and a Uninfected culture response ([3]; 1.89 × 10^-4 Molar, 189 µM) of 89.8%. For the same compound, the Uninfected culture response ([3]; 1.89 × 10^-5 Molar, 18.9 µM) was 100.7%, the Uninfected culture response ([3]; 1.89 × 10^-6 Molar, 1.89 µM) was 104.6% and the Uninfected culture response ([3]; 1.90 × 10^-7 Molar, 0.19 µM) was 105.1%. The Uninfected culture response ([3]; 5.67 × 10^-7 Molar, 0.567 µM) was 112.5% and 77.9%, the Uninfected culture response ([3]; 5.68 × 10^-8 Molar, 0.0568 µM) was 120.4% and 99.0% and the Uninfected culture response ([3]; 5.98 × 10^-5 Molar, 59.8 µM) was 99.2%. For the same compound, the Uninfected culture response ([3]; 5.99 × 10^-6 Molar, 5.99 µM) was 111.3%, the Uninfected culture response ([3]; 6.00 × 10^-7 Molar, 0.6 µM) was 98.3% and the Uninfected culture response ([3]; 6.01 × 10^-8 Molar, 0.0601 µM) was 101.6%. The viability at 17.9 µM ([4]; 1.79 × 10^-5 Molar) was 101%, the viability at 1.79 µM ([4]; 1.79 × 10^-6 Molar) was 97.9% and the viability at 0.179 µM ([4]; 1.79 × 10^-7 Molar) was 101%. For the same compound, the viability at 56.5 µM ([4]; 5.65 × 10^-5 Molar) was 103%, the viability at 5.66 µM ([4]; 5.66 × 10^-6 Molar) was 98.7% and the viability at 0.567 µM ([4]; 5.67 × 10^-7 Molar) was 99.6%. It also gave a viability at 0.0568 µM ([4]; 5.68 × 10^-8 Molar) of 101% and an EC50 [5] of 1160 nM.
With `Cc1ccc(S(=O)(=O)c2ccccc2[N+](=O)[O-])cc1` [Compound 2, 1-(4-Methylphenylsulfonyl)-2-nitrobenzene] the Mean plaque count ([1]; 1 × 10^-3 M) was 130, the “Plaque count, replicate #1” value ([1]; 1 × 10^-3 M) was 162 and the “Plaque count, replicate #2” value ([1]; 1 × 10^-3 M) was 123. For the same compound, the “Plaque count, replicate #3” value ([1]; 1 × 10^-3 M) was 104, the Mean plaque count ([1]; 1 × 10^-4 M) was 50 and the “Plaque count, replicate #1” value ([1]; 1 × 10^-4 M) was 43. For the same compound, the “Plaque count, replicate #2” value ([1]; 1 × 10^-4 M) was 37, the “Plaque count, replicate #3” value ([1]; 1 × 10^-4 M) was 70 and the Mean plaque count ([1]; 1 × 10^-5 M) was 245. For the same compound, the “Plaque count, replicate #1” value ([1]; 1 × 10^-5 M) was 265, the “Plaque count, replicate #2” value ([1]; 1 × 10^-5 M) was 204 and the “Plaque count, replicate #3” value ([1]; 1 × 10^-5 M) was 267. The Mean plaque count ([1]; 1 × 10^-6 M) was 264, the “Plaque count, replicate #1” value ([1]; 1 × 10^-6 M) was 270 and the “Plaque count, replicate #2” value ([1]; 1 × 10^-6 M) was 217. The “Plaque count, replicate #3” value ([1]; 1 × 10^-6 M) was 304, the Mean plaque count ([1]; 1 × 10^-7 M) was 299 and the “Plaque count, replicate #1” value ([1]; 1 × 10^-7 M) was 327. The “Plaque count, replicate #2” value ([1]; 1 × 10^-7 M) was 269, the “Plaque count, replicate #3” value ([1]; 1 × 10^-7 M) was 301 and the Mean plaque count ([1]; 1 × 10^-8 M) was 318. The “Plaque count, replicate #1” value ([1]; 1 × 10^-8 M) was 299, the “Plaque count, replicate #2” value ([1]; 1 × 10^-8 M) was 340 and the “Plaque count, replicate #3” value ([1]; 1 × 10^-8 M) was 314. For the same compound, the inhibition at 100 µM ([1]; 1 × 10^-4 M) was 82%, the inhibition at 10 µM ([1]; 1 × 10^-5 M) was 14% and the inhibition at 1 µM ([1]; 1 × 10^-6 M) was 8%. The inhibition at 0.1 µM ([1]; 1 × 10^-7 M) was 0%, the inhibition at 0.01 µM ([1]; 1 × 10^-8 M) was 0% and the EC50 [5] was 3260 nM.
